{"source": "patent US11135228B2", "about": "“Cysteinyl-proresolving mediators that promote resolution of infection and organ protection” (THE BRIGHAM AND WOMEN'S HOSPITAL, priority 2014, dated 2021)", "key": {"[1]": {"test_system": "Planaria (Dugesia japonica)", "assay": "Planaria tissue regeneration after surgical injury (head resection), tissue regeneration index", "type": "in vivo", "details": "for T50: either SCI or SCII alone, concentration dependent, vehicle ~5 days; for tissue regeneration / head regrowth (in words): surgically injured planaria vs vehicle", "protocol": "Planaria regeneration: Planaria (Dugesia japonica; Dj) were kept in water (Poland Spring) at 18° C. All animals were starved for at least 7 days prior to experiments. Tissue regeneration was assessed as in (12). Briefly, planaria were subject to head resection post-occularly (surgical Injury). The posterior portions of the planaria were then placed in spring water containing 0.01% EtOH, SPE-C isolate fraction 2 from resolving exudates or milk at the indicated dilutions, U0126 (Extracellular signal-regulated kinases (ERK) inhibitor; Cell Signaling Technology; 25 μM (16)), U0126 plus resolving exudates SPE-C isolates fraction 2, SCI (100 nM), SCII (100 nM), lipoxygenase inhibitor (baicalein, 10 μM) or lipoxygenase inhibitor plus SCI and SCII (100 nM). The extent of tissue regeneration during a 6-day period for D. japonica was determined using captured images of the regenerating blastemas at regular intervals (24 h). These images were analyzed using ImageJ software. A tissue regeneration index (TRI) was employed that took into consideration the size of the regenerated tissue total area (A) and the post-ocular width W of the animal, where TRI=A/W. In determined experiments, planaria were injured and incubated in water, containing 10^8CFU E. coli (serotype O6:K2:H1) or with E. coli plus SCI and SCII (100 nM), and tissue regeneration indices assessed as described above.\nPlanaria regeneration: Planaria (Dugesia japonica) were kept in water (Poland. Spring; Nestlé Waters North America, Stamford, Conn., USA) at 18° C. All animals were starved for at least 7 d before the experiments. Tissue regeneration was assessed as described previously (10). In brief, planaria were subjected to head resection postoccularly (surgical injury). The posterior portions of the planaria were then placed in spring water containing 0.01% EtOH, 16-glutathionyl, 17-hydroxyl-4Z,7Z,10,12,14,19Z-docosahexaenoic acid plus 16-cysteinylglycinyl, 7-hydroxyl-4Z,7Z,10,12,14,19Z-docosahexaenoic acid (50 nM; each) or 8-gutathionyl, 7,17-dihydroxyl-4Z9,11,13Z,15E,19Z-docosahexaenoic acid plus 8-cysteinylglycinyl, 7,17-dihydroxyl-4Z,9,11,13Z,15E,19Z-docosahexaenoic acid (50 nM, each). The extent of tissue regeneration during a 6-d period was determined using captured images of the regenerating blastemas at regular intervals (24 h). These images were analyzed using ImageJ software (NIH, Bethesda, Md., USA). A tissue regeneration index (TRI) was used that took into consideration the size of the regenerated tissue total area (A) and the postocular width (W), where TRI=A/W (10)."}, "[2]": {"test_system": "Human neutrophils", "assay": "Human neutrophil phagocytosis of fluorescently labeled E. coli", "type": "cell-based", "details": "10 pM-100 nM, 15 min, then E. coli 45 min", "protocol": "Leukocyte phagocytosis: Macrophages were prepared from peripheral blood mononuclear cells (PBMC) purchased from Children's Hospital Blood Bank, Boston, and phagocytosis was assessed as in (11). Briefly, macrophages (5×10^4 cells,/well) were incubated with SCI (10 pM-100 nM), SCII (10 pM-100 nM), MaR1 (10 pM-100 nM), or vehicle (0.1% EtOH in DPBS) for 15 min at 37° C., then fluorescent labeled apoptotic cells were added and cells incubated 45 min at 37° C. Extracellular fluorescence was quenched using Trypan blue (1:15 dilution) and phagocytosis assessed using an M3 SpectraMax plate reader. In select experiments, macrophages (5×10^4 cells/well) or neutrophils (1×10^5 cells/well) were obtained from human healthy volunteers' peripheral blood as in (11) in accordance with Partners Human Research Committee Protocol (#1999P001297), and incubated with H2DCFDA (5 μM, 30 min, 37° C.), then with SCI (10 pM-100 nM), SCI (10 pM-100 nM) or vehicle (0.1% EtOH in DPBS, 15 min, 37° C.) and E. coli (1:50 leukocytes to E. coli, 45 min, 37° C.) Intracellular reactive oxygen species were determined by measuring fluorescence using an M3 SpectraMax plate reader. […]"}, "[3]": {"test_system": "Mice (hind-limb ischemia/reperfusion)", "assay": "Hind-limb ischemia reperfusion, second organ reflow injury", "type": "in vivo, mouse", "details": "for protection from leukocyte-mediated tissue damage: SCI (50 ng) plus SCII (50 ng) i.v. 10 min prior to reperfusion, lung H&E; for Ki67 and RSPO3 in lung sections (immunofluorescence), tissue repair / plasma eicosanoid levels, including LTB4, LTC4 and TxB2: SCI plus SCII 50 ng each i.v.", "protocol": "Ischemia Reperfusion: Mice were anesthetized by intraperitoneal (i.p.) injection of […]. To initiate hind-limb ischemia, tourniquets consisting of a rubber band were placed on each hind limb. Ten min prior to the initiation of reperfusion, Vehicle (saline containing 0.1% EtOH), SCI (50 ng) plus SCII (50 ng) or Resolvin D1 (500 ng) were administered by intravenous injection. At the end of reperfusion (3 h), mice were euthanized, blood collected via cardiac puncture and plasma isolated for lipid mediator metabololipidomics. Lungs were harvested, left lungs were frozen in liquid nitrogen and stored at −80° C. Right lungs were stored in 10% (v/v) buffered formalin and processed for histology and hematoxylin and eosin (H&E) staining by the Children's Hospital Boston Core Histology Facility, imaged using a Keyence BZ-9000 microscope and BZ II imaging software (Keyence) Expression of Ki67 and Roof plate-specific Spondin-3 (RSPO3) were assessed by immunofluorescence staining. Briefly, sections were deparafinized in xylene and rehydrated, then blocked in 10% horse serum and stained with either rat anti-mouse RSPON3 antibody (R&D Systems) for 1 h at room temperature and then with sheep anti-rat Alexa-594 conjugated antibody (BioLegend), or with rabbit anti-mouse antibody (Abeam) and then with donkey anti-rabbit Alexa-488 antibody (BioLegend). Slides were mounted in Vector Shield mounting solution with DAPI (Vector Labs) and immunofluorescence assessed using a Zeiss LSM 510 Meta confocal microscope. Images were processed using ImageJ software (National Institutes of Health) and Adobe Photoshop CS6 (Adobe Systems incorporated) software. Frozen lungs were gently dispersed, centrifuged, and tissue myeloperoxidase (MPO) levels were determined using mouse MPO ELISA (R&D Systems)."}}, "note": "Entries after “also recorded” stand apart in the source; their conditions may differ."}
{"molecule": "CCC=CCC=CCC(O)C(C=CC=CC=CCC=CCCC(=O)O)SCC(N)C(=O)NCC(=O)O", "note": "(stereo not drawn) [SCII, 13-cysteinylglycinyl, 14-hydroxy-docosahexaenoic acid]", "values": [{"measurement": "T50", "setting": "[1]", "value": "~3.5", "unit": "days"}, {"measurement": "tissue regeneration / head regrowth (in words)", "setting": "[1]", "value": "accelerated head regrowth; also recorded: Promotes tissue"}, {"measurement": "neutrophil phagocytosis of E. coli", "setting": "[2]", "value": "enhanced; also recorded: Stimulates human"}, {"measurement": "protection from leukocyte-mediated tissue damage", "setting": "[3]", "value": "Protects from neutrophil"}, {"measurement": "Ki67 and RSPO3 in lung sections (immunofluorescence), tissue repair", "setting": "[3]", "value": "Promotes tissue repair"}, {"measurement": "plasma eicosanoid levels, including LTB4, LTC4 and TxB2", "setting": "[3]", "value": "Reduces systemic"}]}
{"molecule": "13-glutathionyl, 14-hydroxy-docosahexaenoic acid [SCI]", "values": [{"measurement": "T50", "setting": "[1]", "value": "~3.5", "unit": "days"}, {"measurement": "tissue regeneration / head regrowth (in words)", "setting": "[1]", "value": "accelerated head regrowth; also recorded: Promotes tissue"}, {"measurement": "neutrophil phagocytosis of E. coli", "setting": "[2]", "value": "enhanced; also recorded: Stimulates human"}, {"measurement": "protection from leukocyte-mediated tissue damage", "setting": "[3]", "value": "Protects from neutrophil"}, {"measurement": "Ki67 and RSPO3 in lung sections (immunofluorescence), tissue repair", "setting": "[3]", "value": "Promotes tissue repair"}, {"measurement": "plasma eicosanoid levels, including LTB4, LTC4 and TxB2", "setting": "[3]", "value": "Reduces systemic"}]}
